# Test results taken from patent publication US8853424B2 (Japan Science and Technology Agency, priority 2008, dated 2014).
# What was measured:
# transglutaminase (TGase) = test: Measurement of TG (TGase inhibitory activity, monodansyl cadaverine / N,N-dimethylcasein fluorescence, FDSS 3000); format: biochemical
# Description: For example, the method described in the Example can be performed.
# The compound of the present invention (10 mM, 1 μL) was taken in a 96-well plate (Nunc, 96 Well Black Plate with Clear Bottom), an enzyme reaction solution (100 mM HEPES-NaOH, pH 7.5, 1 mM CaCl2, 20 μM monodansyl cadaverine, 0.05 mg/mL N,N-dimethylcasein, 5 μg/mL TGase) (0.1 ml) was added and the mixture was sufficiently mixed without making foams. The mixture was set on a fluorescence drug screening system FDSS 3000 (Hamamatsu Photonics K.K.), and changes in the fluorescence wavelength per unit time at 340 nm were measured, based on which the TGase inhibitory activity of the compound of the present invention was calculated. As a control, change in the fluorescence when 1 μL of DMSO (dimethyl sulfoxide) was added instead of the compound of the present invention was taken as 100, and TG50 was when the activity decreased to half due to the compound of the present invention.
# [1] = test system: Truncated N-terminal huntington 150 Q-EGFP-Neuron 2a cells; test: Measurement of x-Fold (polyglutamine aggregation inhibitory activity); format: cell-based
# Description: In the present invention, the polyglutamine aggregation inhibitory activity (x-Fold) can be measured, for example, by the method described in the Example.
# The number of the aggregated cells, and the total number of cells were counted by Array Scan V T1 (manufactured by Cellomics, Pittuburg, USA), and the ratio of the aggregated cells to the total number of cells was determined (x-Fold). […]
# [2] = TGase activity with compound (10 mM, 1 μL in 0.1 ml enzyme reaction solution), DMSO control taken as 100
# [3] = ratio of aggregated cells to total number of cells, compound 20 μM, 20 hr, almost 1 without compound, smaller = stronger inhibition
# [4] = TGase inhibitory activity value, Table 1
# [5] = polyglutamine aggregation inhibitory activity, Table 1
Structure (SMILES),TGase activity remaining (% of DMSO control = 100) (transglutaminase (TGase); [2]),TGase activity remaining (% of DMSO control = 100) (transglutaminase (TGase); [4]),"TGase activity remaining (% of DMSO control = 100) (transglutaminase (TGase); TGase inhibitory activity value, Table 1, listed as 871)","x-Fold [1, 3]","x-Fold [1, 5]","x-Fold ([1]; polyglutamine aggregation inhibitory activity, Table 1, listed as 871)","TGase activity remaining (% of DMSO control = 100) (transglutaminase (TGase); TGase inhibitory activity value, Table 1, listed as 611)","x-Fold ([1]; polyglutamine aggregation inhibitory activity, Table 1, listed as 611)"
"COc1ccc(C(OB(c2ccccc2)c2ccc(COCc3ccc(B(OC(c4ccc(OC)cc4)c4ccccn4)c4ccccc4)cc3)cc2)c2ccccn2)cc1 (stereo not drawn) [Example 126, bis(phenyl 2-pyridyl-4-methoxyphenylmethoxyborylbenzyl)ether]",81,–,–,1.04,–,–,–,–
"c1ccc(B(OC(c2ccccc2)c2ccccn2)c2ccccc2COCc2ccccc2B(OC(c2ccccc2)c2ccccn2)c2ccccc2)cc1 (stereo not drawn) [Example 133, (2-pyridyl-phenylmethoxyphenylboryl 2-benzyl)ether]",106,106,–,1.00,1.00,–,–,–
"FC(F)(F)c1ccc(C(OB(c2ccccc2)c2ccccc2COCc2ccccc2B(OC(c2ccc(C(F)(F)F)cc2)c2ccccn2)c2ccccc2)c2ccccn2)cc1 (stereo not drawn) [Example 134, (2-pyridyl-4-trifluoromethylphenylmethoxyphenylboryl 2-benzyl)ether]",94,94,–,0.92,0.92,–,–,–
"Cc1cc(B(O)c2ccc(COCc3ccc(B(O)c4ccc(Cl)c(C)c4)cc3)cc2)ccc1Cl [Example 139, bis(4-chloro-3-methylphenylhydroxyboryl 4-benzyl)ether]",122,–,–,0.88,–,–,122,0.88
"OB(c1ccccc1)c1ccc(-c2ccc(B(O)c3ccccc3)cc2)cc1 [Example 140, 4,4′-phenylhydroxyboryl 4-biphenyl]",−72,−72,–,0.85,0.85,–,–,–

# Now from value to compound, other results behind:
TGase activity remaining (% of DMSO control = 100) (transglutaminase (TGase); [2]),TGase activity remaining (% of DMSO control = 100) (transglutaminase (TGase); [4]),"TGase activity remaining (% of DMSO control = 100) (transglutaminase (TGase); TGase inhibitory activity value, Table 1, listed as 871)",Structure (SMILES),"x-Fold [1, 3]","x-Fold [1, 5]","x-Fold ([1]; polyglutamine aggregation inhibitory activity, Table 1, listed as 871)","TGase activity remaining (% of DMSO control = 100) (transglutaminase (TGase); TGase inhibitory activity value, Table 1, listed as 611)","x-Fold ([1]; polyglutamine aggregation inhibitory activity, Table 1, listed as 611)"
109,109,–,"COc1ccc(C(OB(c2ccc(C)c(Cl)c2)c2ccc(C)c(Cl)c2)c2ccccn2)cc1 (stereo not drawn) [Example 127, bis(3-chloro-4-methylphenyl) 2-pyridyl-4-methoxyphenylmethoxyborane]",0.70,0.70,–,–,–
143,143,–,"Cc1ccc(B(OCCN)c2ccc(B(OCCN)c3ccc(C)c(Cl)c3)cc2)cc1Cl [Example 128, 1,4-bis(3-chloro-4-methylphenyl-2-aminoethoxyboryl)benzene]",0.93,0.93,–,–,–
101,–,–,"NCC(=O)OB(c1ccccc1)c1ccc(Oc2ccc(B(OC(=O)CN)c3ccccc3)cc2)cc1 [Example 129, di((phenylglycine-O,N boryl)phenyl)ether]",0.78,–,–,–,–
116,116,–,"OB(c1ccccc1)c1cc(B(O)c2ccccc2)cc(B(O)c2ccccc2)c1 [Example 130, 1,3,5-tri(phenylhydroxyboryl)benzene]",0.85,0.85,–,–,–
99,99,–,"OB(c1ccccc1)c1ccc(B(O)c2ccccc2)c2ccccc12 [Example 135, 1,4-bis(phenylhydroxyboryl)naphthalene]",1.03,1.03,–,–,–
96,–,96,"NC(=O)CC(N)C(=O)OB(c1ccccc1)c1ccccc1 (stereo not drawn) [Example 136, diphenyl(asparaginate-O,N)borane]",0.98,–,0.98,–,–
96,–,–,"FC(F)(F)c1ccc(C(OB(c2ccccc2)c2ccc(COCc3ccc(B(OC(c4ccc(C(F)(F)F)cc4)c4ccccn4)c4ccccc4)cc3)cc2)c2ccccn2)cc1 (stereo not drawn) [Example 138, bis(2-pyridyl-4-trifluoromethylphenylmethoxyphenylboryl 4-benzyl)ether]",0.99,–,–,–,–
